Experiments:
AR LBD dimer = target: T1, AR LBD dimer (Homo sapiens, UniProt P10275); test: SAXS and CXMS analysis of AR LBD dimerization; assay type: biochemical
T1 construct: The AR LBD (663-919) was fused into the pET50b vector with Nus-tag; Nus-tag (cleaved yes); made in house; host or cells: E. coli BL21 (DE3)
Method: 30 μM AR LBD protein was crosslinked with a 50× molar excess of freshly prepared BS3 (#21580, ThermoFisher) in 20 mM HEPES (pH 7.4), 5% Glycerol, 150 mM NaCl, 10 μM DHT, with or without 90 μM M17-B15. The cross-linking reaction was conducted at room temperature with gentle mixing, and was quenched after 45 min with the addition of Tris-HCl buffer (pH 8.0) to a concentration of 20 mM.
Cross-linked proteins were precipitated with 6-fold volume of pre-cooled acetone for 2 h at -20 °C. Centrifuge at 14,000 rpm for 20 min, and discard the supernatant. Then added 20 μL 100 mM Tris-HCl buffer (pH 8.5), 8 M urea, and ultrasound for 20 min to assist protein dissolution. 5 mM reducing agent TCEP, 10 mM alkylating agent iodoacetamide, 1 mM CaCl2 and 20 mM methylamine were added in tandem. And 3-fold volume of 100 mM Tris pH 8.5 was added to dilute urea to 2 M. Then added trypsin (the mass ratio of enzyme to protein is 1:50) and digested the protein samples at 37 °C for 14 h. Finally, quenched the digestion reaction by adding formic acid with a final […]
An Easy nLC 1000 system (ThermoFisher) coupled to a Velos Pro Orbitrap Elite mass spectrometer (ThermoFisher) was used for mass spectrometry analysis. The resulting peptide mixture was vacuum-centrifuged to dryness, and reconstituted in 0.1% formic acid. […]
respectively. […] The scattering profile for matching buffer was also recorded and was subtracted. […]

AR LBD = target: T2, AR LBD (Homo sapiens, UniProt P10275); test: Biolayer interferometry (BLI) binding to purified AR LBD
T2 construct: The AR LBD (663-919) was fused into the pET50b vector with Nus-tag; Nus-tag (cleaved yes); made in house; host or cells: E. coli BL21 (DE3)
T2 sequence (P10275 663-919): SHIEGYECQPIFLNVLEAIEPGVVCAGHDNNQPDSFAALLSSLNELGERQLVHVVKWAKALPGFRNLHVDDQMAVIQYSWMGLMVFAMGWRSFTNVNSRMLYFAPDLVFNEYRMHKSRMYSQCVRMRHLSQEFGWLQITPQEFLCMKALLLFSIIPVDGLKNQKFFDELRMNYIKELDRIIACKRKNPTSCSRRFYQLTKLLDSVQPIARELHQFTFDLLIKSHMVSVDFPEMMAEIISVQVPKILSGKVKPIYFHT
Method: in 4 L LB media at 37°C until OD600 arrived to 0.6, then supplemented with 0.5 mM Isopropyl β-D-1-Thiogalactopyranoside (IPTG) and 20 μM DHT. After incubated at 16 °C for 16-18 h, the cells were collected by centrifugation at 3,500 × g for 0.5 h. The cell mass was resuspended in Lysis buffer (20 mM Tris -HCL pH 7.4, 5 mM imidazole,150 mM NaCl, 10% Glycerol, 2 mM Dithiothreitol (DTT) and 10 μM DHT) and lysed at 800 bar for at least 5 cycles. The lysis was centrifugated at 14,000 × g for 0.5 h, and the supernatant was loaded to HisTrap TM […] HP column (#17524802, GE Healthcare), followed by washing and eluting steps using 65 mM imidazole and 300 mM imidazole, respectively.
The elution from Ni-NTA were cut by HRV-3C protease, and further purified by […]
The purified AR LBD protein was biotinylated using EZ-Link™ Sulfo-NHS-LC-LC-Biotin (#A35358, ThermoFisher) in 500 μL phosphate -buffered saline with 0.02% Tween -20 (v/v, PBST) buffer for 2 h at 4 °C. […] The kinetics of the AR LBD and M17-B15 association was evaluated by soaking the AR LBD-loaded sensors into wells containing various concentrations of M17 -B15 (6.25, 12.5, 25, 50, 100 μM) for 60 s, followed by dissociation of M17 -B15 by soaking the sensors in the PBST buffer for 60 s. The kinetics values were calculated by fitting the kinetic data based on a 1:1 binding model using Forté Bio data analysis (v.11.1) software .

T1 sequence (P10275 663-919): as above

CC(=O)Cc1nsc(NC(=O)c2cc(-c3cccc(C(F)(F)F)c3)oc2C)n1 [Compound M17-B15]
Dmax value of the AR LBD (SAXS) (AR LBD dimer; upon addition of compound): markedly reduced | proportion of the AR LBD dimer (AR LBD dimer; with DHT, 20% without M17-B15): 15% | Kd (AR LBD; 1:1 binding model, read-out: equilibrium dissociation constant (KD)): 13.2 µM | koff (AR LBD; read-out: Kd (dissociation rate)): 0.033 s⁻¹

Source: article PMC10141604, “Small-Molecule Inhibition of Androgen Receptor Dimerization as a Strategy against Prostate Cancer” (ACS Central Science, 2023)
